Measured values reported in paper PMC6332334, “3-H-[1,2]Dithiole as a New Anti-Trypanosoma cruzi Chemotype: Biological and Mechanism of Action Studies” (Molecules, 2015).
Like-named read-outs stand apart in the source and are kept apart here.

Tests used:
[1] = test system: epimastigotes of T. cruzi (Tulahuen 2 strain); design: method as in PMID 25512408; settings: reference trypanosomicidal drugs; read-out: IC50 against epimastigotes of T. cruzi (reference drugs); cited from earlier work
[2] = molecular target: T1, Trypanosoma cruzi triosephosphate isomerase (TcTIM) (Trypanosoma cruzi, UniProt P52270); assay: Inhibition of enzymatic activity of TcTIM; assay type: biochemical; settings: for inhibition at 25 µM: percentage of enzymatic inhibition at 25 μM, read-out: TcTIM % Inhib25; for inhibition at 200 µM: percentage of enzymatic inhibition at 200 μM, read-out: TcTIM % Inhib200
T1 construct: made in house; host or cells: Escherichia coli
T1 sequence (P52270 whole entry): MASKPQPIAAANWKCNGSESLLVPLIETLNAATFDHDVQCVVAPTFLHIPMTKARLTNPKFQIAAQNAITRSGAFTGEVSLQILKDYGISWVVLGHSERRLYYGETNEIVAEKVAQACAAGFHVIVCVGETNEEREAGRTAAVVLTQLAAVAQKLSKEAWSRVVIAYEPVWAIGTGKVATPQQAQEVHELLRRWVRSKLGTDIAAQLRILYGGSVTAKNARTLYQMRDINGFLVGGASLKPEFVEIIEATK
Experimental: In order to investigate if the 3H-[1,2]dithioles inhibit TcTIM, we initially tested the inhibitory capacity of the compounds at a concentration of 200 μM and then at 25 μM.
Expression and purification of protein: TcTIM was expressed in Escherichia coli and purified as described in the literature. After purification, the enzyme, dissolved in 100 mM triethanolamine, 10 mM EDTA and 1 mM dithiothreitol (pH 8), was precipitated with ammonium sulfate (75% saturation) and stored at 4 °C. Before use, extensive dialysis against 100 mM triethanolamine/10 mM EDTA (pH 7.4) was performed. Protein concentration was determined by absorbance at 280 nm (ε = 36,440 M^−1·cm^−1).
Enzymatic activity assays. Enzymatic activity was determined following the conversion of glyceraldehyde 3-phosphate into dihydroxyacetone phosphate. The decrease in absorbance at 340 nm was followed in a multicell Cary spectrophotometer at 25 °C. The reaction mixture (1 mL, pH 7.4) contained 100 mM triethanolamine, 10 mM EDTA, 0.2 mM NADH, 1 mM glyceraldehyde 3-phosphate, and 0.9 units of α-glycerol phosphate dehydrogenase. The reaction was initiated by addition of 5 ng/mL of the TcTIM.
For inactivation studies, TcTIM was incubated at a concentration of 5 mg/mL in a buffer containing 100 mM triethanolamine, 10 mM EDTA, pH 7.4 and 10% of DMSO at 36 °C. The mixture also contained the compounds at the indicated concentrations. Compounds were dissolved in DMSO. After 2 h, […] was withdrawn and added to 1 mL of reaction mixture for the activity assay. None of the molecules tested here affected the activity of α-glycerol phosphate dehydrogenase, the enzyme used for trapping the product.
The IC50 value was taken as the concentration of drug needed to reduce the enzymatic activity to 50%. The experiments were performed in triplicate.

[3] = test system: J774.1 murine macrophages; assay: Unspecific in vitro cytotoxicity of mammalian cells (MTT); assay type: cell-based; settings: Mus musculus, 48 h exposure, read-out: IC50 against Macrophages
Experimental: (§1) To evaluate the anti-trypanosomal activity of the synthesized 3H-[1,2]dithioles we used T. cruzi, Tulahuen 2 strain (discrete typing unit, DTU, TcVI [18]) in the epimastigote form. […] To establish the selectivity of the compounds against the parasite, unspecific cytotoxicity against mammalian cells (J774.1 murine macrophages) was studied for the most relevant derivatives. The selectivity indexes (SI) were also determined (Table 1).
J774.1 murine macrophage cells (ATCC, Manassas, VA, USA) were grown in DMEM culture milieu containing 4 mM L-glutamine and supplemented with 10% heat-inactivated fetal calf serum. […] Afterwards, cells were exposed for 48 h to the compounds (25–400 μM) or vehicle for control (0.4% DMSO), and additional controls (cells in medium) were used in each test. Cell viability was then assessed by measuring the mitochondria-dependent reduction of MTT (3-(4,5-dimethylthiazol-2-yl)-2,5-diphenyltetrazolium bromide) to formazan. For this purpose, MTT in sterile PBS (0.2% glucose) pH 7.4 was added to the macrophages to achieve a final concentration of 0.1 mg/mL and the cells were incubated at 37 °C for 3 h. After removing the medium, formazan crystals were dissolved in 180 μL of DMSO and 20 μL of MTT buffer (0.1 M glycine, 0.1 M NaCl, 0.5 mM EDTA, pH 10.5) and the absorbance at 560 nm was measured. The IC50 was defined as the drug concentration at which 50% of the cells were viable, relative to the control (no drug added), and was determined by analysis using OriginLab8.5® sigmoidal regression (% of viable cells vs. logarithm of the compound concentration). Samples were performed in triplicate.

[4] = test system: epimastigotes of T. cruzi (Tulahuen 2 strain); assay: Anti-T. cruzi test in vitro (epimastigote growth inhibition); assay type: cell-based, Trypanosoma cruzi; settings: for IC50: Trypanosoma cruzi, epimastigotes, Tulahuen 2 strain, triplicate, read-out: IC50 against T. cruzi
Experimental: as §1
We used epimastigotes of the Tulahuen 2 strain (DTU, Tc VI) growing in an axenic milieu (BHI-Tryptose). Cells from a 5–7-day-old culture were inoculated in fresh culture milieu to give an initial concentration of 1 × 10^6 cells/mL. The absorbance at 600 nm of the cells in culture was measured every day. At day 5, the milieu was inoculated with different quantities of the compounds from a stock solution in DMSO (DMSO concentration in the culture milieu never exceeded 0.4%). The control was made in the presence of 0.4% DMSO and in the absence of compounds. […] At day 5, the absorbance of the culture was measured and related to the control. The IC50 value was taken as the concentration of drug needed to reduce the absorbance ratio to 50%.

[5] = test system: T. cruzi cells (Y strain, DTU Tc II); assay: 1H-NMR study of the excreted metabolites; assay type: cell-based, Trypanosoma cruzi
Experimental: To gain insight into the changes promoted by the active 3-propylidene[1,2]dithioles 2 and 14 in some biochemical pathways, the metabolites excreted by the parasite using ^1H-NMR spectroscopy were analyzed. Changes in the excreted metabolites by T. cruzi Y strain (DTU Tc II, [24]), when the parasite cells were exposed to a bioactive compound, could be indicative of the modification of the biochemical pathway(s) by the agents. Spectra of the cell-free milieu of treated parasites were compared with those of the untreated T. cruzi-free milieu as the control. We focused mainly on the changes of excreted salts of the carboxylic acids, lactate (Lac), acetate (Ace), pyruvate (Pyr), and succinate (Succ) and the amino acids, alanine (Ala) and glycine (Gly), among the most relevant modified metabolites.
For the ^1H-NMR spectroscopic studies, T. cruzi cells (Y strain, DTU Tc II) treated for 2 days, with each studied compound at concentrations corresponding to 2 × IC50 values (5 mL) were centrifuged at 1500× g for 10 min at 4 °C. The pellet was discarded, and the parasite-free supernatant was stored at −20 °C until use. Before measuring, DMF (0.1 mL, 10 mM) as the internal standard and D2O (0.1 mL) were added to the supernatant (0.3 mL). ^1H-NMR experiments were recorded at 20 °C on a Bruker Advance DPX-400 spectrometer (Bruker), operating at 400.132 MHz, with a 5 mm broadband inverse geometry probe. The acquisition parameters included: 90° pulse (zgpr, advance-version v 1.7.10.2, 1D sequence with f1 presaturation), 128 scans, and spectral width of 14.983 ppm. The acquisition time was 1.3664 s. Signal intensities were calculated by performing appropriate baseline corrections and then integrating the area under each of the resonances using MestRe-C NMR software. Spectra were analyzed using the Topspin 1.3 software package. The spectra were registered with water suppression in 5 mm NMR (Aldrich, St. Louis, MO, USA) sample tubes. The chemical displacements used to identify the respective metabolites were previously confirmed by adding each analyzed metabolite to the studied supernatant, as well as by the study of a control solution with 4 μg/mL of each metabolite in buffer (phosphate, pH = 7.4). Each run was done at least in triplicate and the Student t test was used to analyze the significance of the changes. […]

cruzipain [6] = molecular target: T2, cruzipain (Trypanosoma cruzi, UniProt P25779); assay: Inhibition of T. cruzi cruzipain (Z-Phe-Arg-AMC fluorogenic substrate); assay type: biochemical; settings: percentage of enzymatic inhibition at 100 μM; read-out: Cruzipain % Inhib100
T2 construct: endogenous in cells; host or cells: T. cruzi epimastigotes, Tulahuen 2 strain
T2 sequence (P25779 123-467): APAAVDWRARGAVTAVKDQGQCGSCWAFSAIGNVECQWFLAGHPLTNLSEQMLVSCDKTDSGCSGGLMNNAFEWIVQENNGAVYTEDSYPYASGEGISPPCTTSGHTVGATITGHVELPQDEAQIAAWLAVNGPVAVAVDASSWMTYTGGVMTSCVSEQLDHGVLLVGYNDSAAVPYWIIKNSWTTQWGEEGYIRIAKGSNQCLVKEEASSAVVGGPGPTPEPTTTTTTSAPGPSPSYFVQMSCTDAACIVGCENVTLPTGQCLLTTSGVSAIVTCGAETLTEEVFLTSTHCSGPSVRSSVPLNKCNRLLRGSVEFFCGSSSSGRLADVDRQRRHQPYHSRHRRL
Experimental: Initially, we tested the dithioles as inhibitors of the protease cruzipain from T. cruzi at a concentration of 100 μM.
Cruzipain was purified to homogeneity from epimastigotes of the Tulahuen 2 strain by ConA-Sepharose affinity chromatography, as previously described. Cruzipain (2.5 μM ε = 58,285 M^−1·cm^−1) was incubated in 50 mM acetate buffer pH 5.5 with 50 mM DTT and 100 μM inhibitor was added, shaking the solution for 15 min at 27 °C. The derivatives were added diluted in DMSO, and the controls contained the same solvent concentration. The concentration of DMSO never exceeded 1% in the reaction medium. E-64 was used as a positive control of inhibition. Then, the fluorogenic substrate Z-Phe-Arg-AMC (100 μM) was added and the fluorescence was measured during 10 min at intervals of 3 s (excitation at 350 nm and emission at 460 nm) using a Varioskan Flash Spectrophotometer. From the slope of the negative control, we calculated the total (100%) enzyme activity, while the slopes obtained in the presence of the compounds yielded the percentage of remaining enzyme activity. The percentage of enzyme inhibition was determined as […]. The experiments were done in duplicate.

T. cruzi = settings: positive control of the sterol study; source not given; read-out: IC50 of terbinafine; cited from earlier work
[7] = test system: membrane sterol biosynthesis in epimastigotes of Y strain of T. cruzi; assay: Inhibition of membrane sterol biosynthesis (qualitative TLC); assay type: cell-based, Trypanosoma cruzi; settings: compounds at their IC50, 72 h, 28 °C, compared to control
Experimental: To do so, we analyzed the accumulation or depletion of some intermediates or final products of this biochemical pathway. Qualitative analyses were performed by thin layer chromatography (TLC).
The parasites, epimastigotes of Y strain of T. cruzi (DTU Tc II), were grown in 6 mL of BHT milieu in culture bottles. […] A negative control was performed with parasites in the absence of compounds. […] The extraction of membrane sterols was performed on completion of the incubation. For this purpose, the content of the culture bottle was centrifuged at 3000 rpm for 10 min, the supernatant was discarded and the pellet was suspended in sodium phosphate buffer solution (6 mL, 0.05 M, pH 7.4). Then it was centrifuged again at 3000 rpm for 10 min and the supernatant was discarded. The resulting pellet was resuspended in a chloroform/methanol (2:1) mixture (5 mL) and the suspension was kept at 4 °C for 12 h. Then, a saturated NaCl solution (5 mL) was added and the mixture extracted once with chloroform (3 mL) and once with hexane (3 mL) with care to avoid taking any aqueous phase. The extracted volume was applied to a silica gel TLC plate. Chromatography was performed eluting with hexane, two runs to identify squalene, and once with hexane/EtOAc (8:2) for ergosterol. […] Also, controls and commercial samples of ergosterol, lanosterol, cholesterol and squalene were run on the TLC plate. […]

cruzipain [8] = molecular target: T2, cruzipain; assay: Inhibition of T. cruzi cruzipain (Z-Phe-Arg-AMC fluorogenic substrate); assay type: biochemical; settings: isolated enzyme
[9] = IC50 × 2, 2 days, DMF internal standard

inhibition at 25 µM [2] [%] | inhibition at 200 µM [2] [%] | inhibition at 100 µM (cruzipain [6]) [%] | SMILES | IC50 [1] [µM] | IC50 [3] [µM] | IC50 [4] [µM] | also measured
– | – | – | O=C(Cn1ccnc1[N+](=O)[O-])NCc1ccccc1 [Bnz, benznidazole] | 7 ± 1 | – | – | –
38 ± 3.5 | 70 | 66.5 ± 0.3 | O=C(CS/C(C(=O)c1ccc2ccccc2c1)=C1\C=C(c2ccc(O)cc2)SS1)c1ccc2ccccc2c1 [Derivative 14] | – | 63 ± 2 | 4.9 ± 1.1 | Concentration of excreted Ace [5, 9]: 26.41 ± 1.44; Concentration of excreted Ala [5, 9]: 20.65 ± 1.27; Concentration of excreted Gly [5, 9]: 2.48 ± 0.14; Concentration of excreted Lac [5, 9]: 10.41 ± 0.58; Concentration of excreted Pyr [5, 9]: 9.47 ± 0.53; Concentration of excreted Succ [5, 9]: 7.34 ± 0.65; Change of excreted metabolites compared to the control ([5]; IC50 × 2, p < 0.05 Student's t-test): did not modify the excreted catabolites
– | – | – | CN(C/C=C/C#CC(C)(C)C)Cc1cccc2ccccc12 [terbinafine, reference compound] | – | – | – | IC50 (T. cruzi): 44.7 µM; Changes in membrane sterols and intermediates (squalene, ergosterol) [7]: accumulate squalene and deplete ergosterol
– | – | – | CC1CS(=O)(=O)CCN1/N=C/c1ccc([N+](=O)[O-])o1 (centres unmarked) [Nfx, nifurtimox] | 8 ± 1 | – | – | –
62 ± 3 | 86 | 85.4 ± 0.2 | COc1ccc(C2=C/C(=C(\SCC(C)=O)C(C)=O)SS2)cc1 [Derivative 15] | – | < 24 | 5.9 ± 1.2 | SI (selectivity index) ([4]; macrophages (J774.1) vs T. cruzi epimastigotes): <4.1; IC50 (cruzipain [8]): 15.1 ± 2.5 µM
